In patent US5364842A (priority 1993, dated 1994):
Values joined by “and” are separate entries in the source; they are usually repeats but may differ in a detail not shown here. Identical values can stand only once.

Key:
[1] = system: rat tail-flick latency to heat stimulus; details: in vivo
[2] = target: N-type or omega HVA neuronal calcium channels; calcium currents in N1E-115 neuroblastoma cells (Mus musculus, UniProt O55017); format: cell-based
[3] = system: potassium-stimulated acetylcholine release from striatal slices; details: 1 µM
[4] = system: potassium-stimulated dopamine release from striatal slices; format: cell-based, rat; details: 1 µM
[5] = system: voltage-gated calcium currents in IMR-32 cells; format: cell-based, human

Chain of N-type or omega HVA neuronal calcium channels; calcium currents in N1E-115 neuroblastoma cells (O55017 whole entry): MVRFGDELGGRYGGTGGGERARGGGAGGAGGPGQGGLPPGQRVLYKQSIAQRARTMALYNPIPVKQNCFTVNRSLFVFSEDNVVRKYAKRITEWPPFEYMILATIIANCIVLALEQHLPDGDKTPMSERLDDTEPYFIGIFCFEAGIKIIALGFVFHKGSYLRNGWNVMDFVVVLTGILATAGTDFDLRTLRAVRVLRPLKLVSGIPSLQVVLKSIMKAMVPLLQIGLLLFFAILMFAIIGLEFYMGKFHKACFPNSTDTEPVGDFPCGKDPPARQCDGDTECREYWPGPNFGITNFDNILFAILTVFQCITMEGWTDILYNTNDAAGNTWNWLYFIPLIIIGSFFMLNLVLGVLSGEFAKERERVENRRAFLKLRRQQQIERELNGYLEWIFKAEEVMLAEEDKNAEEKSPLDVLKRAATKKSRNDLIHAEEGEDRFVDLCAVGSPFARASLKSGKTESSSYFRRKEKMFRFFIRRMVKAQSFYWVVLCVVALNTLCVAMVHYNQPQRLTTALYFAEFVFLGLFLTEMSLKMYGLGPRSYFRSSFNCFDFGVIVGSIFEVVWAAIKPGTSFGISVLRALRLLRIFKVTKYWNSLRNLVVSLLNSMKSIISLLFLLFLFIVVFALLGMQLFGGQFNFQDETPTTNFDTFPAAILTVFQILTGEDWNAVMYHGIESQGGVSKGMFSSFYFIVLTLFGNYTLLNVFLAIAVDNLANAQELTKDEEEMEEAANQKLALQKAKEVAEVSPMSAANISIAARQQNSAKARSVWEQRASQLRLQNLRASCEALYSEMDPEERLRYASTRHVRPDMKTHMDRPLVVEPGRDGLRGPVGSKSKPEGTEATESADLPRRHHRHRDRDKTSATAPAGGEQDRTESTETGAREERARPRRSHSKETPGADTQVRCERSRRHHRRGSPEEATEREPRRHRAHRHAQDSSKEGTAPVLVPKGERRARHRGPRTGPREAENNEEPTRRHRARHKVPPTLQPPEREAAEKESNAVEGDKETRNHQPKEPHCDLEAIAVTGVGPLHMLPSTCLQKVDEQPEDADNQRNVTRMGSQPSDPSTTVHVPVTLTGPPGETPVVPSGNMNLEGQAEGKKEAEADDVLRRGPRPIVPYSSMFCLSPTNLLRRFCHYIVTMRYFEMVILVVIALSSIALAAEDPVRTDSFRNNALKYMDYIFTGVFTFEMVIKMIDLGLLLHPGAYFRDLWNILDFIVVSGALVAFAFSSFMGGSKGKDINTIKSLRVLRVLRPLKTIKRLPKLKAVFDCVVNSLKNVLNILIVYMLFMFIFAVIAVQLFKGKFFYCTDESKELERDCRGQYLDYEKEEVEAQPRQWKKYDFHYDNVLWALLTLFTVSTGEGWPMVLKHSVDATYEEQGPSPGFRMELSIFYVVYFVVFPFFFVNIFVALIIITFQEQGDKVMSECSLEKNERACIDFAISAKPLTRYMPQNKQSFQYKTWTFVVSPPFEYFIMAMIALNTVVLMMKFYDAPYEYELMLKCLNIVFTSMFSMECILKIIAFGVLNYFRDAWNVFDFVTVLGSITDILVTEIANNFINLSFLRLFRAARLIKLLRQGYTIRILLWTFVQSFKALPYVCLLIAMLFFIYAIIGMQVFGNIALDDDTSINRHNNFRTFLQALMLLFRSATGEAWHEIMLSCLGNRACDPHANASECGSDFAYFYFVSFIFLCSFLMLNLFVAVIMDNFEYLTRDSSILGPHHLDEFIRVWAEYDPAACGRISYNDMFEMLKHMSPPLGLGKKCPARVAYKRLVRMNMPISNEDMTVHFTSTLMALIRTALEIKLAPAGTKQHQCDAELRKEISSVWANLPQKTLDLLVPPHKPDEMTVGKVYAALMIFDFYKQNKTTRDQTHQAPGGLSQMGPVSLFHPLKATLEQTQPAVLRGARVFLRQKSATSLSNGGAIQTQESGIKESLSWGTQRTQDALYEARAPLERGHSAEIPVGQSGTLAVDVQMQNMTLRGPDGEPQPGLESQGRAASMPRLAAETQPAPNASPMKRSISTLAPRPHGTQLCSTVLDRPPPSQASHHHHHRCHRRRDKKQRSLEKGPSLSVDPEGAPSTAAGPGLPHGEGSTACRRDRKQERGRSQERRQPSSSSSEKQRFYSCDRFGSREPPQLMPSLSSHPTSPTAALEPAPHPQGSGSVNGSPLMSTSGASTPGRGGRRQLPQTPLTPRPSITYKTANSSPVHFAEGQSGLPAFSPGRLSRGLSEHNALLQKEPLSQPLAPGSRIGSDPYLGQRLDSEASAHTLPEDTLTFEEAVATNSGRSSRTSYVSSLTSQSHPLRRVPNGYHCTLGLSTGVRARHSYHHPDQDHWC
Chain of N-type or omega HVA neuronal calcium channels; calcium currents in N1E-115 neuroblastoma cells (O08532 25-956 partner limits assumed): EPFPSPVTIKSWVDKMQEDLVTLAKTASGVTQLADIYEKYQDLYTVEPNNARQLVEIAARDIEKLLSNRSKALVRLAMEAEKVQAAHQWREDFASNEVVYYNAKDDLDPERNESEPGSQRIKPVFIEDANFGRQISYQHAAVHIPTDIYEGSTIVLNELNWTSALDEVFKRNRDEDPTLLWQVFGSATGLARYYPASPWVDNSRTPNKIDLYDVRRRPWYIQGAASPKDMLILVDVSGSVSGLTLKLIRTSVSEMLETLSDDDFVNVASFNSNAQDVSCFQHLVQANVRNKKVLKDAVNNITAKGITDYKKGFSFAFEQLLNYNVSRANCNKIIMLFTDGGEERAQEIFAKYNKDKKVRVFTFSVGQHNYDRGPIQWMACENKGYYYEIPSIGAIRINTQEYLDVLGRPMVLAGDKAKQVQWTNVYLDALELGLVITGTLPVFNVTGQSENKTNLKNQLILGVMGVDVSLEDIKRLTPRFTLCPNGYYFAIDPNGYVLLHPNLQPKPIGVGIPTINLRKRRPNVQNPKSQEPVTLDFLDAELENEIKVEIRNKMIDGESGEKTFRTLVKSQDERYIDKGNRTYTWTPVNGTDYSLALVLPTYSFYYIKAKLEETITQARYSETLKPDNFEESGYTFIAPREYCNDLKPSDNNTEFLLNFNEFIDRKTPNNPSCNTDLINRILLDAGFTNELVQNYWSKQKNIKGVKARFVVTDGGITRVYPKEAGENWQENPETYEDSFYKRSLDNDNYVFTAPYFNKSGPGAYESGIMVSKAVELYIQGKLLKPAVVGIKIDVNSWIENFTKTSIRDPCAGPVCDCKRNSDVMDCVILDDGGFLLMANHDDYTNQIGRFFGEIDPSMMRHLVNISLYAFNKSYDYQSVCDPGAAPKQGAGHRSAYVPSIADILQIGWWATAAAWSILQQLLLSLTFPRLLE
Chain of N-type or omega HVA neuronal calcium channels; calcium currents in N1E-115 neuroblastoma cells (O08532 957-1103 partner limits assumed): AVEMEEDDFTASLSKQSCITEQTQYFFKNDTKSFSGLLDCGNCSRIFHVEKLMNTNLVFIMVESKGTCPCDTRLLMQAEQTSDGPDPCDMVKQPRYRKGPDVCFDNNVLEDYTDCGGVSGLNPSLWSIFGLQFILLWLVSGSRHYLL

## CN1CC[C@]23c4c5ccc(O)c4O[C@H]2[C@@H](O)C=C[C@H]3[C@H]1C5 [Morphine, morphine]
[1]
  Analgesia (% Effect), mean MPE: 23
  Latency Percent Effect, mean: 17 and 19 and 18
  Latency Percent Effect, mean MPE: 26

## COC(=O)C1=C(C)NC(C)=C(C(=O)OC)C1c1ccccc1[N+](=O)[O-] [nifedipine]
[2]
  effect on the measured calcium current: no effect

## amiodipine
[3]
  % inhibition of [3H]acetylcholine release: 0
[4]
  % inhibition of [3H]dopamine release: 0

## cadmium
[5]
  effect of addition to the medium on remaining voltage-gated calcium currents: blockade of all remaining voltage-gated calcium currents
